Data published in US20040091528A1, “Soluble drug extended release system” (Yamanouchi Pharma Technologies, Inc., priority 2002, published 2004).
Where a name gives a salt, the structure may show the parent alone. Read-outs that look alike come from different tables or passages of the source.

Legend:
[1] = cited from earlier work
[2] = In vitro dissolution (drug release) from 400 mg matrix tablets, USP apparatus II, SGF or SIF; format: physicochemical; parameters: T50 (time during which 50% of drug has been released from matrix): unit not given here; conditions: for T50 (time during which 50% of drug has been released from matrix): 10 wt. % drug, 400 mg PAA/PEO (1:1.5) tablet, modified SIF; for T50 values in SIF, PAA/PEO: PAA/PEO (1:1.5) formulation, 10% of active; for T10 / T50: 1:1.5 PAA/PEO excipient mixture; for T50 values in SIF, PAA/PEO / T10 / T50 in SIF / T50: SIF; for Comments (interaction with PAA): Table 2; for T50 in SGF: modified SGF
Procedure: Several different formulations with different drugs were manufactured. Drugs were manually mixed with the excipients in a mortar and compressed into 400 mg tablets using Carver press or Oil press with 1000 lb applied force. Flat face 11 mm round tooling was used.
In vitro drug release was measured by in vitro dissolution experiments. […] Drug release was evaluated with either Simulated Gastric Fluid (SGF), pH=1.2 or Simulated Intestinal Fluid (SIF), pH=7.5, both prepared according to USP without enzyme added. Tablet sinkers were applied in all experiments. At predetermined time intervals, a sample was withdrawn from the vessel and assayed using a UV-VIS spectrophotometer at a wavelength of 240 nm.
The release behavior of a large group of basic highly soluble drugs (10 wt. % of drug ) from a directly compressed matrix tablet using 1:1.5 polyacrylic acid/polyethylene oxide (PAA/PEO) mix as excipient was studied under modified Simulated Intestinal Fluid (SIF) conditions.

[3] = cited from earlier work; for Log P: Table 1; for LogP: Table 4
[4] = In vitro dissolution (drug release) from 400 mg matrix tablets, USP apparatus II, SGF or SIF; format: physicochemical; conditions: for T50 values in SIF, PAA/Car: PAA/Carrageenan (1:1) formulation, 25% of active; for T50: negatively charged drugs from negatively charged PAA/PEO matrix
[5] = Table 1, model drug characteristics
[6] = Table 2, positively charged drugs

## CCCCOc1cc(C(=O)OCCN(CC)CC)ccc1N [Benoxinate HCl]
[1]; [5]
  Solubility: 1000 mg/mL
[2]
  T50 (time during which 50% of drug has been released from matrix): 22
  T50 values in SIF, PAA/PEO: 22
[3]
  Log P: 4.0
  LogP: 5.2
[4]
  T50 values in SIF, PAA/Car: 23

## CC(C)(C)CC(C)(C)c1ccc(OCCOCC[N+](C)(C)Cc2ccccc2)cc1 [Benzethonium Chloride]
[2]
  T10: 25 h
  Comments (interaction with PAA): Forms insoluble

## C[N+](C)(C)CC(=O)O [Betaine Hydrochloride]
[2]; 1:1.5 PAA/PEO
  T50 in SIF: 22 h
  T50 in SGF: 4 h

## C[N+](C)(C)CC(=O)O [Betaine]
[1]; [6]
  Solubility: 650 mg/mL
[2]
  T10: 6 h
  T50: 22 h

## CC(C[N+](C)(C)C)OC(N)=O (centres unmarked) [Bethanechol Chloride]
[2]
  T10: 10 h
  T50: 55 h
  Comments (interaction with PAA): Forms insoluble
[2]; 1:1.5 PAA/PEO
  T50 in SIF: 55 h
  T50 in SGF: 24 h

## CC1OC2(CS1)CN1CCC2CC1 (centres unmarked) [Cevimeline HCl]
[1]; [5]
  Solubility: 766 mg/mL
[2]
  T50 (time during which 50% of drug has been released from matrix): 4.5
[3]
  Log P: 1.1

## CN(C)CCCN1c2ccccc2Sc2ccc(Cl)cc21 [Chlorpromazine HCl]
[1]; [5]
  Solubility: 400 mg/mL
[2]
  T50 (time during which 50% of drug has been released from matrix): 56

## COc1ccc([C@@H]2Sc3ccccc3N(CCN(C)C)C(=O)[C@@H]2OC(C)=O)cc1 [Diltiazem HCl]
[1]; [5]
  Solubility: 800 mg/mL
[2]; 1:1.5 PAA/PEO
  T50 in SIF: 18 h
  T50 in SGF: 8 h
[2]
  T50 (time during which 50% of drug has been released from matrix): 18
  T50 values in SIF, PAA/PEO: 18
[3]
  Log P: 3.6
  LogP: 3.6
[4]
  T50 values in SIF, PAA/Car: 21

## CN(C)CCOC(c1ccccc1)c1ccccc1 [Diphenhydramine HCl]
[2]
  T50 (time during which 50% of drug has been released from matrix): 15
  T50 values in SIF, PAA/PEO: 15
[4]
  T50 values in SIF, PAA/Car: 8

## CN(C)CCOC(C)(c1ccccc1)c1ccccn1 (centres unmarked) [Doxylamine Succinate]
[1]; [5]
  Solubility: 1000 mg/mL
[2]
  T50 (time during which 50% of drug has been released from matrix): 23
  T50 values in SIF, PAA/PEO: 23
[3]
  Log P: 2.5
  LogP: 2.5
[4]
  T50 values in SIF, PAA/Car: 22

## CN(C)CCCN1c2ccccc2CCc2ccccc21 [Imipramine HCl]
[1]; [5]
  Solubility: 500 mg/mL
[2]
  T50 (time during which 50% of drug has been released from matrix): 58

## CNS(=O)(=O)CCc1ccc2[nH]cc(C3CCN(C)CC3)c2c1 [Naratriptan HCl]
[2]
  T50 values in SIF, PAA/PEO: 22
[3]
  LogP: 1.8
[4]
  T50 values in SIF, PAA/Car: 25

## CN[C@@H](C)[C@@H](O)c1ccccc1 [Pseudoephedrine HCl]
[2]
  T50 (time during which 50% of drug has been released from matrix): 4
[3]
  Log P: 1.0

## Cc1ncc(CO)c(CO)c1O.Cl [Pyridoxine HCl]
[2]
  T50 (time during which 50% of drug has been released from matrix): 4
[3]
  Log P: −1.9

## CNC(=C[N+](=O)[O-])NCCSCc1ccc(CN(C)C)o1 [Ranitidine HCl]
[1]; [5]
  Solubility: ˜200 mg/ml
[2]
  T50 (time during which 50% of drug has been released from matrix): 11
  T50 values in SIF, PAA/PEO: 11
[3]
  Log P: 1.3
  LogP: 1.3
[4]
  T50 values in SIF, PAA/Car: 15

## CCOc1ccccc1OCCN[C@H](C)Cc1ccc(OC)c(S(N)(=O)=O)c1 [Tamsulosin HCl]
[2]
  T50 values in SIF, PAA/PEO: 26
[3]
  LogP: 2.24
[4]
  T50 values in SIF, PAA/Car: 25

## Cc1ncc(C[n+]2csc(CCO)c2C)c(N)n1 [Thiamine HCl]
[1]; [6]
  Solubility: 1000 mg/mL
[2]
  T10: 1 h
  T50: 7.5 h
  T50 values in SIF, PAA/PEO: 7.5
[2]; permanently positively charged molecules, 1:1.5 PAA/PEO
  Release behaviour (in words): slightly fast release
[4]
  T50 values in SIF, PAA/Car: 7.5

## COc1cccc(C2(O)CCCCC2CN(C)C)c1 (centres unmarked) [Tramadol HCl]
[1]; [5]
  Solubility: >1000 mg/mL
[2]; 1:1.5 PAA/PEO
  T50 in SIF: 31 h
  T50 in SGF: 8 h
[2]
  T50 (time during which 50% of drug has been released from matrix): 31
[3]
  Log P: 2.5

## Cc1nnc(SCC2=C(C(=O)[O-])N3C(=O)[C@@H](NC(=O)Cn4cnnn4)[C@H]3SC2)s1.[Na+] [sodium cefazoline]
[4]
  T50: about 5 hours

## CO[C@@]1(NC(=O)CSCC#N)C(=O)N2C(C(=O)[O-])=C(CSc3nnnn3C)CS[C@@H]21.[Na+] [sodium cefmatazole]
[4]
  T50: about 5 hours

## Amitriptuline HCl
[2]
  T50 (time during which 50% of drug has been released from matrix): 57

## Diphenhydramine Citrate
[2]; 1:1.5 PAA/PEO
  T50 in SIF: 25 h
  T50 in SGF: 12 h
